Values joined by “and” are separate entries in the source; they are usually repeats but may differ in a detail not shown here. Identical values can stand only once.
Experiments:
Test in all cases: Inhibition Assay
[1] = target: Vascular endothelial growth factor receptor 2 (Homo sapiens, UniProt P35968); settings: pH 7; 22 °C
Excerpt: (§1) Inhibition assay using CDK and selective kinases such as gsk3, EGFR, c-Kit, InsR and KDR.

[2] = target: Epidermal growth factor receptor (Homo sapiens, UniProt P00533); settings: pH 7; 22 °C
Excerpt: as §1

Insulin receptor = Insulin receptor (Homo sapiens, UniProt P06213); settings: pH 7.5; 22 °C
Excerpt: as §1

[3] = target: Cyclin-dependent kinase 2 (Homo sapiens, UniProt P24941); settings: pH 8; 22 °C
Excerpt: as §1

Chain of Vascular endothelial growth factor receptor 2 (P35968 whole entry): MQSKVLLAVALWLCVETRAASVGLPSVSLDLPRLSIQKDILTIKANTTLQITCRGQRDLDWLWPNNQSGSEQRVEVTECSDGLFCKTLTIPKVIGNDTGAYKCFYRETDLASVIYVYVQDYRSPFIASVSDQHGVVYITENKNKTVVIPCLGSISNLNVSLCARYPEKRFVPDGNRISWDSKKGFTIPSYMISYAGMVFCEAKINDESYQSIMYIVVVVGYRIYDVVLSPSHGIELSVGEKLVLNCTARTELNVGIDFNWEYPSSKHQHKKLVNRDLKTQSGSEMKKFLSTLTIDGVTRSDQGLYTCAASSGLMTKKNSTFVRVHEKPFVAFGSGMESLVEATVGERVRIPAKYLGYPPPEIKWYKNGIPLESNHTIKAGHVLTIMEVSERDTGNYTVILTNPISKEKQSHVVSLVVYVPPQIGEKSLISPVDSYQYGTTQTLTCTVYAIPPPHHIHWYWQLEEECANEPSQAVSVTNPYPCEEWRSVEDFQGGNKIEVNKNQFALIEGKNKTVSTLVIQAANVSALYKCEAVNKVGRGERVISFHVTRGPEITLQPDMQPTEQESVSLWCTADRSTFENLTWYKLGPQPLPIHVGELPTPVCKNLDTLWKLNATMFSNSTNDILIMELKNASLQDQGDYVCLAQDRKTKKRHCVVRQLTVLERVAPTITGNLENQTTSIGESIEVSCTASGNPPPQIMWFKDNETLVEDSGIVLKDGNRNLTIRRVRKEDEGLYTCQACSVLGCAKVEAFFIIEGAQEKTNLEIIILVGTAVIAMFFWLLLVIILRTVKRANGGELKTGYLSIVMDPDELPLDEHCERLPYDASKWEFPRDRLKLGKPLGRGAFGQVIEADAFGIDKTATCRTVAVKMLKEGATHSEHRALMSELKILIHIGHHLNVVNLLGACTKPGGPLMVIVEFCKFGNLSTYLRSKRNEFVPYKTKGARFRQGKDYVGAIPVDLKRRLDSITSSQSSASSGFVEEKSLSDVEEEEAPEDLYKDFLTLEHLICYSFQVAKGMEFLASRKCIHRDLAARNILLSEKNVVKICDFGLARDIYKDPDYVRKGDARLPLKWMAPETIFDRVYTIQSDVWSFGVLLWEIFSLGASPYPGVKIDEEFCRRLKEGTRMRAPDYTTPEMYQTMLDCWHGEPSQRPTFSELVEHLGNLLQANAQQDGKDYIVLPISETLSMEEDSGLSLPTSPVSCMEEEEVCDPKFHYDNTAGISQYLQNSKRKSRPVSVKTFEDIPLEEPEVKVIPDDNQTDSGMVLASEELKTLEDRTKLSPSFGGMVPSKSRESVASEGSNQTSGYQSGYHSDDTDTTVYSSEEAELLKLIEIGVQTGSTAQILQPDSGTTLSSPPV
Chain of Insulin receptor (P06213 28-758 limits assumed): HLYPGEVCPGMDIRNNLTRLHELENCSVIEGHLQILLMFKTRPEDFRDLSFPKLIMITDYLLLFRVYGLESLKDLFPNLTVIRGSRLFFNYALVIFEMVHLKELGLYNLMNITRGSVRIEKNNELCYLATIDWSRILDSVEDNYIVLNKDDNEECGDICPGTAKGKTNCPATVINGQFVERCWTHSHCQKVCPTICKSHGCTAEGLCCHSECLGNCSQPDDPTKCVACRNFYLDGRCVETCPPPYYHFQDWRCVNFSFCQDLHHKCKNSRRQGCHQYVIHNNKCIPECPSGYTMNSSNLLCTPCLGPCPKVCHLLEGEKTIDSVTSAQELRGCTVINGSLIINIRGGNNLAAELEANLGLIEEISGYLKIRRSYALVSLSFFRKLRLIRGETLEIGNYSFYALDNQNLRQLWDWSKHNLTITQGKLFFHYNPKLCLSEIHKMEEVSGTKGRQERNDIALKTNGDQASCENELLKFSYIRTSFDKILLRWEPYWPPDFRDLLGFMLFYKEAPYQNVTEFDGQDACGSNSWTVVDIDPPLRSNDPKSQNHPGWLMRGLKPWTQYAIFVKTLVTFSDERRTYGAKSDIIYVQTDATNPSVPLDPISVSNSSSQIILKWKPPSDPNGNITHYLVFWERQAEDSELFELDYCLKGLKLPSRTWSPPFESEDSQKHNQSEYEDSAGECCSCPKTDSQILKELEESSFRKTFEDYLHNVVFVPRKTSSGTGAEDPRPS
Chain of Insulin receptor (P06213 763-1382 limits assumed): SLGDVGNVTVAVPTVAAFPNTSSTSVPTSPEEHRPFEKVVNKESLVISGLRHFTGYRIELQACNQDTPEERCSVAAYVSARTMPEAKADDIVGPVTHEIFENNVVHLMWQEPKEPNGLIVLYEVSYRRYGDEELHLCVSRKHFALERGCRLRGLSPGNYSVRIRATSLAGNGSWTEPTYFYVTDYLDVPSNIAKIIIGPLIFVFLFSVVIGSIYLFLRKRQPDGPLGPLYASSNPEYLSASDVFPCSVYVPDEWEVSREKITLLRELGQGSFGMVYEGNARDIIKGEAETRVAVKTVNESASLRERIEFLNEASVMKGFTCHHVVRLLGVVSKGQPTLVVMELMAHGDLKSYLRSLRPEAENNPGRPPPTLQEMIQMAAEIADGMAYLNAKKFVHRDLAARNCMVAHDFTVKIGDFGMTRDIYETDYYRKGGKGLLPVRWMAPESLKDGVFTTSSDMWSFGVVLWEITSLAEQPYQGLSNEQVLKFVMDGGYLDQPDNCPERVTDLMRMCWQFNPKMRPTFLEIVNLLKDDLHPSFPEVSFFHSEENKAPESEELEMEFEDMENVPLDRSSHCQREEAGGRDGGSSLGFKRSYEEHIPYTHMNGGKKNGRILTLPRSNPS
Chain of Epidermal growth factor receptor (P00533 whole entry): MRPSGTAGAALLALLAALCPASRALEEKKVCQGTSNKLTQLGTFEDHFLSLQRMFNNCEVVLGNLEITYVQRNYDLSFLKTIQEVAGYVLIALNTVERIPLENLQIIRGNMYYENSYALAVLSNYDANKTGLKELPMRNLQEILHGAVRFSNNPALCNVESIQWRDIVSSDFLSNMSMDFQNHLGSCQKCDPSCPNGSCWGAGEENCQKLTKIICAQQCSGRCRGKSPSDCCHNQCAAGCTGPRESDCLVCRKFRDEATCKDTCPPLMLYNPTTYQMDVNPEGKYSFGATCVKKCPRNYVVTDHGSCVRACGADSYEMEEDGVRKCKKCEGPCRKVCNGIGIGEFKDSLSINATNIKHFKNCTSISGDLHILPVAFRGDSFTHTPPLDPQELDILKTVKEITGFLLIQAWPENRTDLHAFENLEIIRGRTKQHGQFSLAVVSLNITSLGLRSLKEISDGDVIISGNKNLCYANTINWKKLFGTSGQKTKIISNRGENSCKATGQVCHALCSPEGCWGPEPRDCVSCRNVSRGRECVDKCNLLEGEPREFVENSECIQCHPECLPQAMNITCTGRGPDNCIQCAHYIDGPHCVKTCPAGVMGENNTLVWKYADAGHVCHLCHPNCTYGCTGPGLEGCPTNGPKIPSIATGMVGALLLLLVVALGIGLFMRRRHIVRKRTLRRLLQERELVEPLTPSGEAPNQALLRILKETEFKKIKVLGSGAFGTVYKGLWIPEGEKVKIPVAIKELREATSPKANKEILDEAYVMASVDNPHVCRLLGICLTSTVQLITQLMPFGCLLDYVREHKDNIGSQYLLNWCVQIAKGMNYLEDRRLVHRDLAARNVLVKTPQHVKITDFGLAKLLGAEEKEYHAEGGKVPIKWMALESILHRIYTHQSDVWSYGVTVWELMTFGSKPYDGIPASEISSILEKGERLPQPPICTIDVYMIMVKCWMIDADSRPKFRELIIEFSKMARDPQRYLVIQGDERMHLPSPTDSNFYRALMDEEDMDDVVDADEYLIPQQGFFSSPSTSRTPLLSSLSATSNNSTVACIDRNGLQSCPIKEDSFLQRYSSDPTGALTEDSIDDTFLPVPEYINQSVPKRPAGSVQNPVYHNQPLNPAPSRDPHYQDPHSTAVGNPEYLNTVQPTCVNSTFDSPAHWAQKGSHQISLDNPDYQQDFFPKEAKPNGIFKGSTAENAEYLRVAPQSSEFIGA

IC50 [1] [µM] | IC50 [2] [µM] | IC50 (Insulin receptor) [µM] | IC50 [3] | Compound
> 10 | > 10 | > 10 | – | O=C1Nc2ccc(Br)cc2C1=C1Nc2ccccc2C1=O
– | – | – | 2000 nM | O=C1Nc2ccccc2/C1=C1/Nc2ccccc2C1=O [2-[(3Z)-2-oxo-2,3-dihydro-1H-indol-3-ylidene]-2,3-dihydro-1H-indol-3-one]
– | – | – | 40 nM | CN(C)S(=O)(=O)c1ccc2c(c1)C(=C1Nc3ccccc3C1=O)C(=O)N2 [Indirubin derivative, 8]
> 10 | > 10 | > 10 | – | O=C1Nc2ccc(S(=O)(=O)O)cc2C1=C1Nc2ccccc2C1=O [Indirubin derivative, 20]
– | – | – | 10 nM | CN(C)CCN(C)S(=O)(=O)c1ccc2c(c1)C(=C1Nc3ccccc3C1=O)C(=O)N2 [Indirubin derivative, 22]
– | – | – | 40 nM | CN(C)CCN(C)S(=O)(=O)c1ccc2c(c1)C(c1[nH]c3ccccc3c1N=O)C(=O)N2 (stereo unspecified) [Indirubin derivative, 23]
– | – | – | 90 nM | CN(C)CCN(C)S(=O)(=O)c1ccc2c(c1)/C(=C1/Nc3ccccc3/C1=N\OCCO[C@@H]1O[C@H](CO)[C@@H](O)[C@H](O)[C@H]1O)C(=O)N2 [Indirubin derivative, 25]
– | – | – | 3000 nM | CC1(O)C(C2C(=O)Nc3ccc(Br)cc32)=Nc2ccccc21 (stereo unspecified) [Indirubin derivative, 26]
– | – | – | 70 nM and 600 nM | CN(C)S(=O)(=O)c1ccc2c(c1)C(C1=Nc3ccccc3C1(C)O)C(=O)N2 (stereo unspecified) [Indirubin derivative, 27b]
> 10 | > 10 | > 10 | – | CN(C)CCN(C)S(=O)(=O)c1ccc2c(c1)C(C1=Nc3ccccc3C1(C)O)C(=O)N2 (stereo unspecified) [Indirubin derivative, 28b]
> 10 | > 10 | > 10 | – | C=CCC1(O)C(C2C(=O)Nc3ccc(S(=O)(=O)N(C)CCN(C)C)cc32)=Nc2ccccc21 (stereo unspecified) [Indirubin derivative, 30b]
– | – | – | 3000 nM and > 10000 nM | CN(C)S(=O)(=O)c1ccc2c(c1)C(C1=Nc3ccccc3C1(O)C(O)CO)C(=O)N2 (stereo unspecified) [Indirubin derivative, 31b]
– | – | – | 80 nM | O=C1Nc2ccc(S(=O)(=O)NCCO)cc2C1=C1Nc2ccccc2C1=O [Indirubin derivative, 33]
– | – | – | 1500 nM | O=C(O)CCNS(=O)(=O)c1ccc2c(c1)C(=C1Nc3ccccc3C1=O)C(=O)N2 [Indirubin derivative, 34]
– | – | – | 450 nM | CN(C[C@H](O)[C@@H](O)[C@H](O)[C@H](O)CO)S(=O)(=O)c1ccc2c(c1)C(=C1Nc3ccccc3C1=O)C(=O)N2 [Indirubin derivative, 35]
– | – | – | 80 nM | CN(C)S(=O)(=O)c1ccc2c(c1)/C(=C1/Nc3ccccc3/C1=N\OCCO[C@@H]1O[C@H](CO)[C@@H](O)[C@H](O)[C@H]1O)C(=O)N2 [Indirubin derivative, 36 (X=NO)]
– | – | – | 20 nM | CN(C)C1CCN(S(=O)(=O)c2ccc3c(c2)C(=C2Nc4ccccc4C2=O)C(=O)N3)CC1 [Indirubin derivative, 36 (X=O)]
– | – | – | 1600 nM | CC1(O)C(C2C(=O)Nc3ccc(S(=O)(=O)N4CCC(O)CC4)cc32)=Nc2ccccc21 (stereo unspecified) [Indirubin derivative, 37]

Source: BindingDB's records for doi:10.1002/cbic.200400108 (Schering, 2005)
